In publication PMC1997131, “Enzymes involved in DNA ligation and end-healing in the radioresistant bacterium Deinococcus radiodurans” (BMC Molecular Biology, 2007):

Biological target: T1, LigA (Deinococcus radiodurans, UniProt Q9RSQ5)
T1 construct: full-length, N-terminal hexahistidine tag (pRSETb, kept), E. coli BL21(DE3)
Assay: adenylyltransferase assay, SDS-PAGE autoradiography
Format: biochemical
Conditions: 0.1 μM [32P]-NAD+, 1 mM MnCl2, pH 6.8, 30 °C; covalent AMP adduct; labelled compound

Structure (SMILES): NC(=O)c1ccc[n+]([C@@H]2O[C@H](COP(=O)(O)OP(=O)(O)OC[C@H]3O[C@@H](n4cnc5c(N)ncnc54)[C@H](O)[C@@H]3O)[C@@H](O)[C@H]2O)c1 [NAD^+]
- adenylyltransferase assay, SDS-PAGE autoradiography: in an adenylyltransferase activity assay LigA wt formed an AMP-ligase complex
